Reference: patent US9072737B2, “tPA mutant in the treatment of acute brain injury and neurodegenerative disorders” (HADASIT MEDICAL RESEARCH SERVICES & DEVELOPMENT LTD., priority 2008, dated 2015)

System: Blood Brain Barrier (BBB)
Assay: Blood brain barrier permeability, Evans blue uptake into brain
Type: in vivo, mice
Settings: peptide 1 mg/kg i.p. together with tPA 1 mg/kg; FIG. 4A
Protocol: The uptake of Evans blue dye into a brain tissue served as a marker to for quantifying disruption of the blood-brain barrier and increase in permeability of the BBB. […] Data was expressed as absorbance at 620 nm per gram of tissue. The mean±SEM of data from 8-9 animals/group are shown.
FIG. 4A. Mice were injected i.p. with 25 μl of saline or saline containing either WT-tPA or mtPA (1 mg/kg each) alone or together with PAI-1 derived 18 amino acids (aa) (as denoted by SEQ ID NO. 8) or 6 aa (as denoted by SEQ ID NO. 3) peptides (1 mg/kg each). Ten minutes later, the mice were given an i.v. injection of 2% Evans blue (EB) in saline. One hour after injection of dye, organs were cleared of blood by transcardiac perfusion. […] Extruded dye was quantified by absorbance at 620 nm. The figure presents a histogram illustration of the absorbance of EB at […] per gram of tissue. […]
To determine the effect of injection of tPA-S^481A on BBB function, anesthetized mice were injected i.p. with 25 μl of saline or saline containing tPA or tPA mutant (tPA-Ser^481Ala) (1 mg/kg each), followed by the intravenous injection of 2% Evans blue in saline. Evans blue was quantified by absorbance at 620 nm.
Plasminogen activator inhibitor-1 (PAI-1) is recognized as the inhibitor of tPA. […] Extruded dye was quantified by absorbance at 620 nm. Data are expressed in FIG. 4A as absorbance per gram of tissue.

EEIIMD (listed as Homo sapiens) [reference compound]
inhibition of recombinant tPA-induced BBB permeability: failed to decrease
